From patent US8476287B2, “3-hydroxy-5-arylisothiazole derivative” (Mochida Pharmaceutical Co., Ltd., priority 2009, dated 2013) come the findings set out here.

Structures can show the parent of a compound that is named as a salt.

T1 sequence (O14842 whole entry): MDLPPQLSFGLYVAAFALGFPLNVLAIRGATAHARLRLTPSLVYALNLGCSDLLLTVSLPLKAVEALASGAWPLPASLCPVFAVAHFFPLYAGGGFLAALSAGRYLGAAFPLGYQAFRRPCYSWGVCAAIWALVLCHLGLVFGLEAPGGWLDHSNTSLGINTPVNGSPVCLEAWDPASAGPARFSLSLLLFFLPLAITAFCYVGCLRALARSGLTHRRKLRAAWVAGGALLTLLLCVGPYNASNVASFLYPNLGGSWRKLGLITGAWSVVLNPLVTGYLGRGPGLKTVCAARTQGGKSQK

This experiment addresses T1, GPR40 of human origin (Homo sapiens, UniProt O14842).
T1 construct: expressed in transfected cells
The experiment can be described thus: Agonist action on GPR40 of human origin (Ca2+ fluorescence in CHO cells). It counts as cell-based. As to conditions: CHO cell strain stably expressing GPR40 of human origin; Ca2+ concentration fluctuation, fluorescent calcium indicator. As to the method:
A CHO cell strain stably expressing GPR40 of human origin was used to determine the agonist action of a subject compound. This cell strain was seeded in a clear bottom 96 well plate at 4×10^4 cells/100 μL/well. The cell strain was cultured in a CO2 incubator overnight using a Ham's F-12 medium containing a 10% fetal bovine serum, 100 U/mL penicillin, 0.1 mg/mL streptomycin, and 400 μg/mL Geneticin. Calcium 4 Assay Kit (Molecular Devices) was used as a fluorescent calcium indicator. One mL of 77 mg/mL probenecid (Invitrogen) was added to 100 mL of a calcium indicator solution to prepare a solution (loading solution) mixed with a 20 mM HEPES-containing Hanks' balanced salt solution (HBSS) in equal proportions. 200 μL of the loading solution was added to the cells from which the culture solution was removed, and the cells were cultured in a CO2 incubator for 1 hour. The subject compound was diluted with a 20 mM HEPES-containing HBSS and was added to the cells by 50 μL, and the fluctuation of the Ca^2+ concentration was measured by an intracellular ion analyzer. The EC50 value of the subject compound was calculated using the dose-response curve of fluorescence intensity variation.
Turning to `Cc1cc(OCC[C@H](C)O)cc(C)c1-c1cccc(COc2ccc(-c3cc(O)n[s+]3[O-])cc2)c1C` (stereo partly drawn) [Example 61, 5-(4-((3-(2,6-dimethyl-4-((3S)-3-hydroxybutoxy)phenyl)-2-methylphenyl)methoxy)phenyl)isothiazol-3-ol 1-oxide(A)], the EC50 was less than 0.3 µM. As to `Cc1cc(OCCO)cc(C)c1-c1cccc(COc2ccc(-c3cc(O)n[s+]3[O-])cc2)c1C` (centres unmarked) [Example 51, 5-(4-((3-(2,6-dimethyl-4-(2-hydroxyethoxy)phenyl)-2-methylphenyl)methoxy)phenyl)isothiazol-3-ol 1-oxide(A)], the EC50 was less than 0.3 µM.

Regarding `[O-][s+]1nc(O)cc1-c1ccc(OC2CCc3c(Oc4ccccc4)cccc32)cc1` (centres unmarked) [Example 124, 5-[4-[(4-phenoxy-2,3-dihydro-1H-inden-1-yl)oxy]phenyl]isothiazol-3-ol 1-oxide(A)], the EC50 is less than 0.3 µM. The same measure for `Cc1cc(OCCC(C)(C)O)ncc1-c1cccc(COc2ccc(-c3cc(O)n[s+]3[O-])cc2)c1C` (centres unmarked) [Example 10, 5-(4-((3-(6-(3-hydroxy-3-methylbutoxy)-4-methylpyridin-3-yl)-2-methylphenyl)methoxy)phenyl)isothiazol-3-ol 1-oxide]: less than 0.3 µM; for `Cc1c(Br)cccc1COc1ccc(-c2cc(O)n[s+]2[O-])cc1` (centres unmarked) [Example 91, 5-[4-[(3-bromo-2-methylphenyl)methoxy]phenyl]isothiazol-3-ol 1-oxide(A)]: 0.3 to 3 µM.

Take `Cc1cc(OC[C@H](O)CO)c(F)c(C)c1-c1cccc(COc2ccc(-c3cc(O)n[s+]3[O-])cc2)c1` (stereo partly drawn) [Example 59, 5-(4-((3-(4-((2R)-2,3-dihydroxypropoxy)-2,6-dimethyl-3-fluorophenyl)phenyl)methoxy)phenyl)isothiazol-3-ol 1-oxide(A)]: the concentration giving a half-maximal response (EC50) was less than 0.3 µM.

On to `Cc1nc(OCCCN2CCCC2=O)nc(C)c1-c1cccc(COc2ccc(-c3cc(O)n[s+]3[O-])cc2)c1C` (centres unmarked) [Example 37, 5-(4-((3-(4,6-dimethyl-2-(3-(2-oxopyrrolidin-1-yl)propoxy)pyrimidin-5-yl)-2-methylphenyl)methoxy)phenyl)isothiazol-3-ol 1-oxide(A)], for which the EC50 lay within 0.3 to 3 µM.

For the compound `Cc1cc(OCCCS(C)(=O)=O)cc(C)c1-c1cccc(COc2ccc(-c3cc(O)n[s+]3[O-])cc2)c1` (centres unmarked) [Example 44, 5-(4-((3-(2,6-dimethyl-4-(3-(methylsulfonyl)propoxy)phenyl)phenyl)methoxy)phenyl)isothiazol-3-ol 1-oxide(A)], the EC50 is less than 0.3 µM. With `Cc1cc(OCC2(C)COC2)cc(C)c1-c1cccc(COc2ccc(-c3cc(O)n[s+]3[O-])cc2)c1C` (centres unmarked) [Example 42, 5-(4-((3-(2,6-dimethyl-4-((3-methyl-3-oxetanyl)methoxy)phenyl)-2-methylphenyl)methoxy)phenyl)isothiazol-3-ol 1-oxide(A)], the EC50 is less than 0.3 µM. As for `[O-][s+]1nc(O)cc1-c1ccc(OCc2cccc(Cl)c2)cc1` (single isomer, unassigned) [Example 89, 5-[4-[(3-chlorophenyl)methoxy]phenyl]isothiazol-3-ol 1-oxide(A)], the half-maximal effective concentration (EC50) is less than 0.3 µM. In the case of `Cc1cc(OCCC(C)(C)O)cc(C)c1-c1cccc(COc2ccc(-c3cc(O)n[s+]3[O-])cc2)c1C` (centres unmarked) [Example 31, 5-(4-((3-(2,6-dimethyl-4-(3-hydroxy-3-methylbutoxy)phenyl)-2-methylphenyl)methoxy)phenyl)isothiazol-3-ol 1-oxide(A)], the EC50 is less than 0.3 µM. For `[O-][s+]1nc(O)cc1-c1ccc(O[C@@H]2CCc3c(C4CC4)cccc32)cc1` (single isomer, unassigned) [Example 109], the EC50 is less than 0.3 µM.

With `Cc1cc(OCCCS(C)(=O)=O)cc(C)c1-c1cccc(COc2ccc(-c3cc(O)n[s+]3[O-])cc2)c1C` (centres unmarked) [Example 23, 5-(4-((3-(2,6-dimethyl-4-(3-(methylsulfonyl)propoxy)phenyl)-2-methylphenyl)methoxy)phenyl)isothiazol-3-ol 1-oxide(A)], the half-maximal effective concentration (EC50) is less than 0.3 µM. For `Cc1ncccc1Oc1cccc2c1CCC2Oc1ccc(-c2cc(O)n[s+]2[O-])cc1` (centres unmarked) [Example 125, 5-[4-[[4-(2-methylpyridin-3-yl)oxy-2,3-dihydro-1H-inden-1-yl]oxy]phenyl]isothiazol-3-ol 1-oxide(A)], the concentration for a half-maximal effect (EC50) is less than 0.3 µM. The same measure for `Cc1cc(OCCCN2CCCC2=O)cc(C)c1-c1cccc(COc2ccc(-c3cc(O)n[s+]3[O-])cc2)c1` (centres unmarked) [Example 33]: less than 0.3 µM; for `[O-][s+]1nc(O)cc1-c1ccc(OC2CCOc3cc(C(F)(F)F)ccc32)cc1` (centres unmarked) [Example 83, 5-[4-[[7-(trifluoromethyl)-3,4-dihydro-2H-chromen-4-yl]oxy]phenyl]isothiazol-3-ol 1-oxide(A)]: 0.3 to 3 µM; for `COc1ccc(-c2cccc3c2CC[C@H]3Oc2ccc(-c3cc(O)n[s+]3[O-])cc2)c(C)n1` (stereo partly drawn) [Example 119, 5-[4-[[(1R)-4-(6-methoxy-2-methylpyridin-3-yl)-2,3-dihydro-1H-inden-1-yl]oxy]phenyl]isothiazol-3-ol 1-oxide(A)trifluoroacetate salt]: less than 0.3 µM. For `Cc1cc(OCC[C@@H](C)O)cc(C)c1-c1cccc(COc2ccc(-c3cc(O)n[s+]3[O-])cc2)c1C` (stereo partly drawn) [Example 64, 5-(4-((3-(2,6-dimethyl-4-((3R)-3-hydroxybutoxy)phenyl)-2-methylphenyl)methoxy)phenyl)isothiazol-3-ol 1-oxide(A)], the EC50 is less than 0.3 µM.

Turning to `Cc1cc(OC[C@H](O)CO)cc(C)c1-c1cccc(COc2ccc(-c3cc(O)n[s+]3[O-])cc2)c1` (stereo partly drawn) [Example 55, 5-(4-((3-(4-((2R)-2,3-dihydroxypropoxy)-2,6-dimethylphenyl)phenyl)methoxy)phenyl)isothiazol-3-ol 1-oxide(A)], the EC50 was less than 0.3 µM. The same measure for `Cc1cccc(C)c1N1CCC[C@H](COc2ccc(-c3cc(O)n[s+]3[O-])cc2)C1` (stereo partly drawn) [Example 96, 5-[4-[[(3S)-1-(2,6-dimethylphenyl)piperidin-3-yl]methoxy]phenyl]isothiazol-3-ol 1-oxide (A)]: less than 0.3 µM. In the case of `[O-][s+]1nc(O)cc1-c1ccc(OC2CCc3c(Cl)cccc32)cc1` (centres unmarked) [Example 68, 5-(4-(4-chloro-2,3-dihydro-1H-inden-1-yloxy)phenyl)isothiazol-3-ol 1-oxide(A)], the concentration for a half-maximal effect (EC50) was less than 0.3 µM. On to `CCOCCOc1cc(C)c(-c2cccc(COc3ccc(-c4cc(O)n[s+]4[O-])cc3)c2)c(C)c1` (centres unmarked) [Example 17, 5-(4-((3-(2,6-dimethyl-4-(2-ethoxyethoxy)phenyl)phenyl)methoxy)phenyl)isothiazol-3-ol 1-oxide(A)], for which the concentration giving a half-maximal response (EC50) is less than 0.3 µM. As to `Cc1nc(OCCO)ccc1-c1cccc(COc2ccc(-c3cc(O)n[s+]3[O-])cc2)c1C` (centres unmarked) [Example 52, 5-(4-((3-(2-methyl-6-(2-hydroxyethoxy)pyridin-3-yl)-2-methylphenyl)methoxy)phenyl)isothiazol-3-ol 1-oxide(A)], the concentration giving a half-maximal response (EC50) lay in the range of 0.3 to 3 µM. For `Cc1cc(OCCCN)cc(C)c1-c1cccc(COc2ccc(-c3cc(O)n[s+]3[O-])cc2)c1` (centres unmarked) [Example 78, 5-[4-[[3-[4-(3-aminopropoxy)-2,6-dimethylphenyl]phenyl]methoxy]phenyl]isothiazol-3-ol 1-oxide(A)], the EC50 was less than 0.3 µM. Take `Cc1nc(OCCC(C)(C)O)ccc1-c1cccc(COc2ccc(-c3cc(O)n[s+]3[O-])cc2)c1C` (centres unmarked) [Example 11, 5-(4-((3-(6-(3-hydroxy-3-methylbutoxy)-2-methylpyridin-3-yl)-2-methylphenyl)methoxy)phenyl)isothiazol-3-ol 1-oxide]: the EC50 is less than 0.3 µM. In the case of `CC1(C)CC=C(c2cccc3c2CC[C@H]3Oc2ccc(-c3cc(O)n[s+]3[O-])cc2)CC1` (single isomer, unassigned) [Example 120], the EC50 fell in the range of 0.3 to 3 µM. With `[O-][s+]1nc(O)cc1-c1ccc(OC2CCc3c(OC4CCOCC4)cccc32)cc1` (centres unmarked) [Example 132, 5-[4-[[4-(oxan-4-yloxy)-2,3-dihydro-1H-inden-1-yl]oxy]phenyl]isothiazol-3-ol 1-oxide(A)], the concentration for a half-maximal effect (EC50) was less than 0.3 µM. The same measure for `CCOCCOc1cc(C)c(-c2cccc(COc3ccc(-c4cc(O)n[s+]4[O-])cc3)c2)c(C)c1F` (centres unmarked) [Example 22, 5-(4-((3-(2,6-dimethyl-4-(2-ethoxyethoxy)-3-fluorophenyl)phenyl)methoxy)phenyl)isothiazol-3-ol 1-oxide(A)]: less than 0.3 µM; for `[O-][s+]1nc(O)cc1-c1ccc(COCc2cccc(Br)c2)cc1` (centres unmarked) [Example 141, 5-[4-[(3-bromophenyl)methoxymethyl]phenyl]isothiazol-3-ol 1-oxide]: 0.3 to 3 µM; for `Cc1cc(OCCCN2CCCC2=O)nc(C)c1-c1cccc(COc2ccc(-c3cc(O)n[s+]3[O-])cc2)c1` (centres unmarked) [Example 35, 5-(4-((3-(2,4-dimethyl-6-(3-(2-oxopyrrolidin-1-yl)propoxy)pyridin-3-yl)phenyl)methoxy)phenyl)isothiazol-3-ol 1-oxide(A)]: less than 0.3 µM. Turning to `Cc1cccc(C)c1-c1cccc(COc2ccc(C3=CC(O)=NS3(=O)=O)cc2)c1` [Example 9, 5-(4-((3-(2,6-dimethylphenyl)phenyl)methoxy)phenyl)isothiazol-3-ol 1,1-dioxide], the concentration giving a half-maximal response (EC50) is 0.3 to 3 µM. Regarding `Cc1cc(OCCC(C)(C)O)nc(C)c1-c1cccc(COc2ccc(-c3cc(O)n[s+]3[O-])cc2)c1C` (centres unmarked) [Example 12, 5-(4-((3-(2,4-dimethyl-6-(3-hydroxy-3-methylbutoxy)pyridin-3-yl)-2-methylphenyl)methoxy)phenyl)isothiazol-3-ol 1-oxide], the concentration giving a half-maximal response (EC50) was less than 0.3 µM.

The term EC50 denotes the concentration giving half of the maximal effect.
